Results as given in patent publication US11590117B2, “Treatment of a hematologic malignancy with 2-(4-chlorophenyl)-n-((2-(2,6-dioxopiperidin-3-yl)-1-oxoisoindolin-5-yl)methyl)-2,2-difluoroacetamide” (priority 2016, dated 2023).
Read-outs that look alike come from different tables or passages of the source.

Columns and labels:
Test in all cases: IncuCyte Kinetic Caspase-3/7 Apoptosis Assay
Type in all cases: cell-based
Conditions in all cases: Homo sapiens, read-out: Compound 1-induced Apoptosis EC50
[1] = test system: AML-193
Excerpt: (§1) Methods. Acute Myeloid Leukemia Cell Line Panel: Human AML cell lines, AML-193, F36-P, GDM-1, HL-60, HNT-34, Kasumi-1, Kasumi-3, KG-1, KG-1a, ML-2, MOLM-13, MUTZ-8, MV-4-11, NOMO-1, OCI-AML2, OCI-AML3, SIG-M5, TF-1, THP-1, and UT-7 were obtained from American Type Culture Collection (ATCC; Manassas, Va.) and Deutsche Sammlung von Mikroorganismen und Zellkulturen (DSMZ) (Germany) cell banks. The AML panel includes cell line(s) from each FAB classification (M0-M7) (Table 7).
(§2) Cell Culture Conditions: Cell lines were maintained in growth media containing 20% fetal bovine serum (FBS) (Hyclone Cat no. SH30910.03, Lot no. AZF188864; Corning REFno. 35-010-CV, Lot no. 35010124) supplemented with or without 10 ng/mL human recombinant granulocyte-macrophage colony stimulating factor (Sigma-Aldrich Cat no. SRP3050) (Table 8). Medium was purchased from ATCC (Cat no. 30-2001, 30-2002, 30-2003, 30-2005) and Gibco (REF no. 12561-056). Human recombinant granulocyte macrophage colony stimulating factor (GM-CSF) was expressed in Escherichia coli. The cell doubling times for each cell line were provided by ATCC and DSMZ. Cells were maintained in humidified incubators at 5% carbon dioxide (CO2). All cell lines were acclimated to Eagle's minimal essential medium (EMEM)+20% FBS with or without GM-CSF over 2 to 4 weeks prior to live cell imaging using IncuCyte Zoom (Essen Biosciences). The use of EMEM was necessary to eliminate background fluorescence caused by riboflavin in most media.
(§3) Incubation of Cell Cultures with Compound 1: Compound 1 was provided for studies by Celgene chemistry group at a stock concentration of 30 mM in 20 μL dimethyl sulfoxide (DMSO) frozen. Costar 96-well cell culture plates (Corning Cat no. 3595) were coated with 100 μL of 10 µg/mL fibronectin (Sigma-Aldrich Cat no. F1141) for 4 hours at 37° C. and immediately used or refrigerated overnight for later use. Cells (3000 to 6000 cells) were plated in growth medi in fibronectin-coated 96-well plates and incubated for a minimum of a few hours to overnight. Cells were incubated with a 12-point concentration response in triplicate with Compound 1 ([…]) including DMSO and Media controls. A 3-fold serial dilution of Compound 1 starting from a concentration of 200 μM in 0.6% DMSO (diluted in Media) was performed. For most sensitive cell lines, a 3-fold serial dilution of Compound 1 starting from a concentration of 20 μM in 0.6% DMSO (diluted in media) was performed. A volume of 5 μL or 10 μL for each dilution was added to 100 μL or 200 μL cells, respectively (0.3% DMSO final) and incubated for live cell imaging.
(§4) Live Cell Imaging on IncuCyte Zoom: Following incubation of cells with Compound 1, diluted Caspase 3/7 reagent (Essen Biosciences Cat no. 4440) is added to each well. The Caspase-3/7 reagent couples the activated caspase-3/7 recognition motif (DEVD) to NucView™488, a DNA intercalating dye. The cleavage of substrate by activated caspase-3/7 results in the release of the DNA dye and green fluorescent staining of nuclear DNA. This allows imaging of cells undergoing caspase-3/7 mediated apoptosis over time. Caspase-3/7 activation was quantified using the IncuCyte™ ZOOM basic analyzer. Red-labeled cell lines were also imaged over time using the IncuCyte™ ZOOM basic analyzer, for determination of both cell doubling time and Compound 1 effect on cell viability. Experiments were performed at least two times in each cell line.
(§5) Next, a 4 parameter log-logistic model was used to determine relative EC50 at each time point by the ‘drm’ function from the R ‘drc’ package (Ritz C, Streibig J C. Bioassay Analysis using R. J. Statist. Software 2005; 12(5):1-22). Goodness of fit was measured by R squared (coefficient of determination or the amount of variation explained by the model fit) of ≥80%, and EC50 parameter was assessed by having a ratio of standard error to the parameter of ≤40%, and the presence of at least one concentration point above and below the reported EC50. […]

[2] = test system: HL-60
Excerpt: as §1, §2, §3, §4, §5

[3] = test system: HNT-34
Excerpt: as §1, §2, §3, §4, §5

[4] = test system: KG-1
Excerpt: as §1, §2, §3, §4, §5

[5] = test system: Kasumi-3
Excerpt: as §1, §2, §3, §4, §5

[6] = test system: MOLM-13
Excerpt: as §1, §2, §3, §4, §5

[7] = test system: MUTZ-8
Excerpt: as §1, §2, §3, §4, §5

[8] = test system: OCI-AML2
Excerpt: as §1, §2, §3, §4, §5

[9] = test system: OCI-AML3
Excerpt: as §1, §2, §3, §4, §5

[10] = test system: SIG-M5
Excerpt: as §1, §2, §3, §4, §5

[11] = test system: TF-1
Excerpt: as §1, §2, §3, §4, §5

[12] = test system: UT-7
Excerpt: as §1, §2, §3, §4, §5

With `O=C1CCC(N2Cc3cc(CNC(=O)C(F)(F)c4ccc(Cl)cc4)ccc3C2=O)C(=O)N1` (stereo not drawn) [Compound 1, 2-(4-chlorophenyl)-N-((2-(2,6-dioxopiperidin-3-yl)-1-oxoisoindolin-5-yl)methyl)-2,2-difluoroacetamide] the EC50 ([1]; 24 hr) was 254 nM, the EC50 ([1]; 48 hr) was 89 nM and the EC50 ([1]; 72 hr) was 47 nM. The EC50 ([1]; 96 hr) was 60 nM, the EC50 ([2]; 24 hr) was 73 nM and the EC50 ([2]; 48 hr) was 15 nM. It also gave an EC50 ([2]; 72 hr) of 8 nM, an EC50 ([3]; 24 hr) of 7 nM and an EC50 ([3]; 48 hr) of 4 nM. It also gave an EC50 ([3]; 96 hr) of 2 nM, an EC50 ([4]; 12 hr) of 53 nM and an EC50 ([4]; 24 hr) of 108 nM. It also gave an EC50 ([4]; 48 hr) of 39 nM, an EC50 ([4]; 72 hr) of 26 nM and an EC50 ([4]; 96 hr) of 25 nM. For the same molecule, the EC50 ([5]; 12 hr) was 54 nM, the EC50 ([5]; 24 hr) was 10 nM and the EC50 ([5]; 48 hr) was 4 nM. It also gave an EC50 ([5]; 72 hr) of 3 nM, an EC50 ([5]; 96 hr) of 1 nM and an EC50 ([6]; 24 hr) of 916 nM. For the same molecule, the EC50 ([6]; 48 hr) was 368 nM, the EC50 ([6]; 72 hr) was 156 nM and the EC50 ([6]; 96 hr) was 79 nM. For the same molecule, the EC50 ([7]; 24 hr) was 88 nM, the EC50 ([7]; 48 hr) was 40 nM and the EC50 ([7]; 72 hr) was 18 nM. The EC50 ([7]; 96 hr) was 15 nM, the EC50 ([8]; 24 hr) was 436 nM and the EC50 ([8]; 48 hr) was 81 nM. The EC50 ([8]; 72 hr) was 41 nM, the EC50 ([8]; 96 hr) was 38 nM and the EC50 ([9]; OCI-AML-3, 48 hr) was 896 nM. It also gave an EC50 ([9]; OCI-AML-3, 72 hr) of 971 nM, an EC50 ([9]; OCI-AML-3, 96 hr) of 418 nM and an EC50 ([10]; 24 hr) of 148 nM. For the same molecule, the EC50 ([10]; 48 hr) was 97 nM, the EC50 ([10]; 72 hr) was 50 nM and the EC50 ([10]; 96 hr) was 33 nM. The EC50 ([11]; 48 hr) was 129 nM, the EC50 ([11]; 72 hr) was 65 nM and the EC50 ([11]; 96 hr) was 64 nM. It also gave an EC50 ([12]; UT7, 48 hr) of 231 nM, an EC50 ([12]; UT7, 72 hr) of 218 nM and an EC50 ([12]; UT7, 96 hr) of 168 nM.
